Entries after “also recorded” stand apart in the source; their conditions may differ.

One series deals with T1, GBA1 (Homo sapiens, UniProt P04062).
T1 sequence (P04062 40-536): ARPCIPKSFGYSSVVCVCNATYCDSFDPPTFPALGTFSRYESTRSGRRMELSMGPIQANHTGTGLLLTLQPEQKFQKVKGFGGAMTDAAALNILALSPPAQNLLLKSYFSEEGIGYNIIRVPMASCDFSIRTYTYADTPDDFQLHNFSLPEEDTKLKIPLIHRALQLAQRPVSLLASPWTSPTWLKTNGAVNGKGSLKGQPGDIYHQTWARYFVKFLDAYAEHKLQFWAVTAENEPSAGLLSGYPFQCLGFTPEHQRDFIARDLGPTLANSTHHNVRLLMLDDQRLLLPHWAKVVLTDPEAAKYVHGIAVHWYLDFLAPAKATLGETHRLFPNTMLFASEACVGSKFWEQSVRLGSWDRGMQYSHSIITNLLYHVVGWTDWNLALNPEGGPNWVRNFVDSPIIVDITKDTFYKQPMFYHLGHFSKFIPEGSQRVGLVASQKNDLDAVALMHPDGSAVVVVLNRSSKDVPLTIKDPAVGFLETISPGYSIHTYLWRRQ
Nature of the series: Live cell imaging of GBA1 activity in SK-N-SH cells. It counts as cell-based. As to the method:
SK-N-SH cells were cultured, except where indicated otherwise, in EMEM supplemented with 10% FBS and 1% penicillin-streptomycin at 37° C. and 5% CO2. The media was replaced every 3-4 days and the cells passaged after reaching 70-80% confluency, which occurred approximately every week. For imaging experiments, cells were seeded in triplicate into the central 60 wells of a sterile 96-well plate (Corning 4680) at a density of 10000 cells/well.
Fluorescence measurements in live cells was performed using a Molecular Devices ImageXpress XLS High-Content Imaging system (HCl). Live cells were plated in a 96-well or 384-well Corning plates. Cells were left to adhere and incubated at 37° C. in 5% CO2 for at least 12 h in EMEM supplemented with 10% FBS and 1% penicillin-streptomycin before any treatment. Cells were then washed with warm (37° C.) EMEM (with no phenol red and FBS). A mixture of vehicle, substrate dissolved in DMSO (0.1% final concentration of DMSO), or substrate and inhibitor mixture, were added to the imaging media (EMEM with no phenol red or FBS supplemented with DAPI) which was then added to these cells and incubated at 37° C. and 5% CO2 in the dark for the times specified (typically 2 h). […] For each well, 9 sites were imaged at predefined regions of each well and 2 to 3 channel were recorded (DAPI, FITC, TRITC). The data was analyzed using the MetaXpress software suite. by determining the Mean Integrated Intensity obtained using the TRITC channel and dividing by the number of cells (determined thanks to DAPI staining).
The Glc-H-BABS(TAMRA/BHQ2) 8 was also evaluated in the human neuronal cell culture model cells SK-N-SH. […] By integrating the fluorescence intensity from randomly selected fields, it was possible to observe a quantitative increase in fluorescence with increasing concentrations of the Glc-BABS 8. Next, it was established that there is a dose-dependent cellular fluorescence where a linear increase in fluorescence was observed that depended on the concentration of Glc-BABS 8 (FIG. 12). […]

Another series addresses T2, hOGA (Homo sapiens, UniProt O60502).
T2 construct: started by addition of hOGA (WT, Full-length, expressed in E. coli. as previously described); made in house; host or cells: E. coli
T2 sequence (O60502 1-916): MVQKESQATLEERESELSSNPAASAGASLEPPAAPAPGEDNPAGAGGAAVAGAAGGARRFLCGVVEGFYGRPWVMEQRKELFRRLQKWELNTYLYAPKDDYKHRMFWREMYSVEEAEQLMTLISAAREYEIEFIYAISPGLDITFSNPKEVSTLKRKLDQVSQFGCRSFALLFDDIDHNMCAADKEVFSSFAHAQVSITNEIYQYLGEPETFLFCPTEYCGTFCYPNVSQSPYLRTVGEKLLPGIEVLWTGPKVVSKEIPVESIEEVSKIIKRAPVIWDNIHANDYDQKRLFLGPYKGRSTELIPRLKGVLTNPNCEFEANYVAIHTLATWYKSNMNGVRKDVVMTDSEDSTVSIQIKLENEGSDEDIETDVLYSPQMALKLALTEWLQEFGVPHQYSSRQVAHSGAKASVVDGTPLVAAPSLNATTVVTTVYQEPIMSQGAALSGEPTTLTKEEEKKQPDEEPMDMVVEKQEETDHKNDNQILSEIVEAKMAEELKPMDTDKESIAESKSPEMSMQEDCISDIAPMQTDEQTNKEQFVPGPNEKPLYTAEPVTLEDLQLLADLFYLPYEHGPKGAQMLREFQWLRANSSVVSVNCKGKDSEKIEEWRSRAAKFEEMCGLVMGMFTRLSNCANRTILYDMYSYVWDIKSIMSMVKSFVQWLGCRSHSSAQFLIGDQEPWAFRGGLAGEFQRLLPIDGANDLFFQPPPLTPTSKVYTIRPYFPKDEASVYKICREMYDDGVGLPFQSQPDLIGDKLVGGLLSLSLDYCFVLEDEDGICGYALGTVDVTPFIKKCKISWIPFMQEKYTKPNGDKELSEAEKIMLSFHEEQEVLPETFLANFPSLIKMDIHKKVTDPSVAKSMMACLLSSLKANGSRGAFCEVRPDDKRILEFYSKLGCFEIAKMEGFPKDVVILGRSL
Nature of the series: Interrupted assay for determination of hemiacetal breakdown. It counts as biochemical. As to the method: For some experiments, fluorescence kinetic assays were performed using a Varian Cary Eclipse Spectrophotometer set for 335/493 nm excitation/emission wavelengths. Slits were set at 10 nm and the detector was set on Medium voltage. Enzymatic reactions with human OGA were carried out in PBS at 37° C. and were started by addition of hOGA (WT, Full-length, expressed in E. coli. as previously described) in a total volume of 160 μL (Starna sub-micro Fluorometer cuvette). For measurements of rates using different concentrations of substrates, a hOGA concentration of 100 nM was used. For hOGA titration, 25 μM of Glyco-BABS were added to various concentration of hOGA. For interrupted assay, reaction was started by addition of hOGA (680 nM final) in solutions of GlcNAc-BABS in PBS. […] For hemiacetal breakdown rate measurements, data after Thiamet-G addition was extracted and fitted using Prism software. EDANS standard curve was established using endpoint fluorescence measurements of serial dilutions of EDANS in the relevant buffer using the same instrument parameters. Inner-Filter effect measurements were carried out in cuvette by measuring fluorescence of several concentrations of EDANS in presence of various concentrations of GlcNAc-BABS. Kinetics with Glc-BABS and GBA enzymes (GBA1 and GBA3 purchased from R&D Systems), kinetics with GALC (R&D systems) and Gal-BABS, pH stability, quenching efficiency, some inner-filter effect experiments and lysates experiments were carried out using a Molecular Devices SpectraMax i3× plate reader. Emission/Excitation wavelengths were set at 350 and 490 nm respectively for EDANS/DABCYL Glyco-BABS and at 565 and 610 nm respectively for TAMRA/BHQ2 Glyco-BABS. Fluorescence measurements were performed using Costar 96-well black plates or Nunc 384-well black plates after sample preparation in 96-well mixing plates. For GBA1, the continuous assay was performed in citrate buffer (50 mM, pH 5.5) in the presence of 0.1% Triton, 1 mg/mL BSA and 0.14% taurodeoxycholate at 25° C. […]

Series [1] can be described thus: pH stability of Glyco-BABS. In kind it is physicochemical. Conditions: 5 μM, up to 72 h, pH 2 to 10. An excerpt:
One concern with the Glyco-BABS design was the known lability of acetals under acidic conditions that has been exploited in pH-sensitive prodrugs or linkers for drug delivery.^41,42 However, we recognized that carbohydrate anomeric acetals are chemically distinct from regular acetals. Due to stabilization by the endocyclic oxygen, we expected these bis-acetals would show stability across a range of physiological pH values. We therefore assessed the stability of the bis-acetal motif toward acid and base hydrolysis (FIG. 8). To do so, we tested the pH stability of 5 μM of GlcNAc-Br-BABS 1, GlcNAc-OH-BABS 2, Glc-OH-BABS 6 and Glc-H-BABS 7 at different pH over time. We prepared solutions at various pH by mixing 0.2 M KCl+0.1 M HCl with 0.2 M KCl+0.1 M KOH. Fluorescence of EDANS and Glyco-BABS solutions (5 μM, 45 μL) at different pH was measured at different time points in Nunc 384-well plates using a SpectraMax i3× plate reader. Data (triplicates) support the highly efficient quenching and the stability of these substrates over a wide range of pH.

For `O[C@H]1[C@H](O)CNC[C@@H]1C(F)F` [AT3375, (3R,4R,5S)-5-(difluoromethyl)piperidine-3,4-diol], at GBA1 (10 μM AT3375 with 5 μM Glc-BABS 8), the “effect on fluorescent signal of Glc-BABS 8 in live SK-N-SH cells” value is “significant reduction; also recorded: clear decrease of the signal”. In addition, the “fluorescence signal vs inhibitor concentration in live SK-N-SH cells” value at GBA1 (varying AT3375 concentrations, 5 μM Glc-BABS 8, 2 h) is “decreasing fluorescence signal with increasing inhibitor concentration”.
In the case of `CC(=O)N[C@H]1[C@H](O[C@@H](OCCOCCn2cc(CNC(=O)c3ccc(/N=N/c4ccc(N(C)C)cc4)cc3)nn2)[C@@](C)(O)C(=O)NCCNc2cccc3c(S(=O)(=O)O)cccc23)O[C@H](CO)[C@@H](O)[C@@H]1O` [Compound 2, 5-((2-((2R,3R)-3-(((2S,3R,4R,5S,6R)-3-acetamido-4,5-dihydroxy-6-(hydroxymethyl)tetrahydro-2H-pyran-2-yl)oxy)-3-(2-(2-(4-((4-((E)-(4-(dimethylamino)phenyl)diazenyl)benzamido)methyl)-1H-1,2,3-triazol-1-yl)ethoxy)ethoxy)-2-hydroxy-2-methylpropanamido)ethyl)amino)naphthalene-1-sulfonic Acid], the “first order rate constant (k3) for hemiacetal breakdown” value at hOGA (hemiacetal generated from the substrate, hOGA stopped after 1 min with Thiamet-G 100 μM) stood at 0.044 s⁻¹. In addition, the “hemiacetal breakdown, times faster than the one from GlcNAc-Br-BABS 1” value on hOGA (ratio of k3) turned out to be 4.5 times. In series [1], the “pH stability (increase of fluorescence)” value is “no significant increase of fluorescence”.
For `COc1cc(/N=N/c2ccc([N+](=O)[O-])cc2)c(OC)cc1/N=N/c1ccc(N(C)CCCC(=O)NCc2cn(CCOCCOC(CC(=O)NCCCCCCNC(=O)c3ccc(-c4c5ccc(=[N+](C)C)cc-5oc5cc(N(C)C)ccc45)c(C(=O)[O-])c3)O[C@@H]3O[C@H](CO)[C@@H](O)[C@H](O)[C@H]3O)nn2)cc1` (stereo partly drawn) [Compound 8, 5-((6-(3-(2-(2-(4-((4-((4-((E)-(2,5-dimethoxy-4-((E)-(4-nitrophenyl)diazenyl)phenyl)diazenyl)phenyl)(methyl)amino)butanamido)methyl)-1H-1,2,3-triazol-1-yl)ethoxy)ethoxy)-3-(((2S,3R,4S,5S,6R)-3,4,5-trihydroxy-6-(hydroxymethyl)tetrahydro-2H-pyran-2-yl)oxy)propanamido)hexyl)carbamoyl)-2-(6-(dimethylamino)-3-(dimethyliminio)-3H-xanthen-9-yl)benzoate], the “processing to fluorescent product in live SK-N-SH cells” value on GBA1 (5 μM and varying concentrations, 1 to 2 h) is given as “processed in cells to result in the fluorescent product”.

The values are drawn from patent publication US11396522B2, “Bis-acetal-based substrates for imaging exo-glycosidase activity” (ALECTOS THERAPEUTICS INC., priority 2017, dated 2022).
